Data from patent US8648215B2, “Spiroenone and uses thereof” (Joben Bio-Medical Co., Ltd., priority 2012, dated 2014).

Test system: MCF-7 cells
Experiment: MTT assay for antiproliferation, MCF-7 cells
Format: cell-based
Details: Homo sapiens, MCF7, 24 h, read-out: percentage of inhibition
Experimental: Cell Lines and Culture. MCF-7, T-47D, and H184B5F5/M10 cells were cultured with 5% CO2 atmosphere at 37° C.; MDA-MB-231 cells were cultured without CO2 at 37° C. The MCF-7 cells were cultured in MEM containing 10% heat-inactivated FBS, 100 units/mL penicillin, 100 μg/mL streptomycin, and 1 mM sodium pyruvate. The T-47D cells were maintained in RPMI-1640 medium containing 10% heat inactivated FBS, 100 units/mL penicillin, and 100 μg/mL streptomycin. […]
Assay for Antiproliferation. To determine the antiproliferative effect, MCF-7, T-47D, MDA-MB-231, or H184B5F5/M10 cells were assessed using the MTT assay as previously reported (Ho, C. Y.; Kim, C. F.; Leung, K. N.; Fung, K. P.; Tse, T. F.; Chan, H.; Lau, C. B. Differential anti-tumor activity of Coriolus versicolor (Yunzhi) extract through p53- and/or Bcl-2-dependent apoptotic pathway in human breast cancer cells. Cancer Biol. Ther. 2005, 4, e11-e17). […] The absorbance at 570 nm was measured, and the viability of cells was calculated using the following equation: relative cell number (%)=(average absorbance of treated wells)×100/(average absorbance of blank vehicle wells).

COC1=C(C)CC2(CC1)C(C)=CC(=O)C=C2C [compound 3, coixspiroenone]
inhibition at 50 µM: 19.2%
